The target of the experiment is recombinant IL4I1 (Homo sapiens (Human), UniProt Q96RQ9). Kind of experiment: IL4I1 Enzymatic Assay (Amplex Red/HRP coupled fluorescence detection of H2O2). The class given is biochemical. To be noted: 240 min; recombinant IL4I1, four-hour pre-incubation with compound. The method, boiled down: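 Recombinant human IL4I1 (1 nM final) pre-incubated 4 h with compound at ambient temperature in 50 mM Hepes pH 7.0, 0.005% Tween20. Started with 1 mM each Phe/Tyr/Trp plus Amplex Red/HRP; H2O2-derived resorufin fluorescence read after 120 min; EC50 from ten-point 1:3 titration, four-parameter fit.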
Chain of recombinant IL4I1 (Q96RQ9 22-567): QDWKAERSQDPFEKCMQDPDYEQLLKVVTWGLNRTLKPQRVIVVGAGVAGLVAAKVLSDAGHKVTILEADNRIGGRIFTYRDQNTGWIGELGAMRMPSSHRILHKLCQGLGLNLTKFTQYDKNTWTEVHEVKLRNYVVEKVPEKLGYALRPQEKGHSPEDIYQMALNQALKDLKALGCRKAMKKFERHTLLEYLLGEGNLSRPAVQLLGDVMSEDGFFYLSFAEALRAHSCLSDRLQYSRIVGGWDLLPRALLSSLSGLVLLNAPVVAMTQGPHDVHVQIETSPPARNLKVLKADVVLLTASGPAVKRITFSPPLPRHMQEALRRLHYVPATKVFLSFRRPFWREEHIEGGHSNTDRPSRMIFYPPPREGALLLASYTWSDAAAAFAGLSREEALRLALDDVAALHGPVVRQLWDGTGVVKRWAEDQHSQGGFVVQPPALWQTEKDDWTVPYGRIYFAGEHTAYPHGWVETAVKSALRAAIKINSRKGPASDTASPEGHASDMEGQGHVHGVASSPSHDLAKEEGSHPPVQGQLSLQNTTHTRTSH
Consider `O=c1c(=O)n(C23CC(F)(C2)C3)ccn1Cc1cc(-c2ccccn2)no1` [Example 203, 1-(3-fluorobicyclo[1.1.1]pentan-1-yl)-4-((3-(pyridin-2-yl)isoxazol-5-yl)methyl)-1,4-dihydropyrazine-2,3-dione], for which the EC50 was found to be 19 nM.

On to `N#CC1(n2ccn(Cc3ccc(-c4nccs4)nn3)c(=O)c2=O)CC1` [Example 204, 1-(2,3-dioxo-4-((6-(thiazol-2-yl)pyridazin-3-yl)methyl)-3,4-dihydropyrazin-1(2H)-yl)cyclopropane-1-carbonitrile], for which the 50% effective concentration (EC50) is 78 nM. For `O=c1c(=O)n(C23CC(F)(C2)C3)ccn1Cc1ccc(-c2nccs2)nn1` [Example 205, 1-(3-fluorobicyclo[1.1.1]pentan-1-yl)-4-((6-(thiazol-2-yl)pyridazin-3-yl)methyl)-1,4-dihydropyrazine-2,3-dione] the value was 24 nM. Take `CC1(n2ccn(Cc3cc(-c4ccccn4)on3)c(=O)c2=O)CC1` [Example 206, 1-(1-methylcyclopropyl)-4-((5-(pyridin-2-yl)isoxazol-3-yl)methyl)-1,4-dihydropyrazine-2,3-dione]: the concentration giving a half-maximal response (EC50) stood at 28 nM. In the case of `N#CC1(n2ccn(Cc3cc(-c4ccccn4)on3)c(=O)c2=O)CC1` [Example 207, 1-(2,3-dioxo-4-((5-(pyridin-2-yl)isoxazol-3-yl)methyl)-3,4-dihydropyrazin-1(2H)-yl)cyclopropane-1-carbonitrile], the EC50 was 43 nM. As for `O=c1c(=O)n(C23CC(F)(C2)C3)ccn1Cc1cc(-c2ccccn2)on1` [Example 208, 1-(3-fluorobicyclo[1.1.1]pentan-1-yl)-4-((5-(pyridin-2-yl)isoxazol-3-yl)methyl)-1,4-dihydropyrazine-2,3-dione], the concentration giving a half-maximal response (EC50) was 21 nM. For the compound `CC1(n2ccn(Cc3cc(-c4cccnc4)on3)c(=O)c2=O)CC1` [Example 209, 1-(1-methylcyclopropyl)-4-((5-(pyridin-3-yl)isoxazol-3-yl)methyl)-1,4-dihydropyrazine-2,3-dione], the half-maximal effective concentration (EC50) worked out at 26 nM.

Consider `N#CC1(n2ccn(Cc3cc(-c4cccnc4)on3)c(=O)c2=O)CC1` [Example 210, 1-(2,3-dioxo-4-((5-(pyridin-3-yl)isoxazol-3-yl)methyl)-3,4-dihydropyrazin-1(2H)-yl)cyclopropane-1-carbonitrile], for which the concentration giving a half-maximal response (EC50) was determined as 92 nM. Regarding `O=c1c(=O)n(C23CC(F)(C2)C3)ccn1Cc1cc(-c2cccnc2)on1` [Example 211, 1-(3-fluorobicyclo[1.1.1]pentan-1-yl)-4-((5-(pyridin-3-yl)isoxazol-3-yl)methyl)-1,4-dihydropyrazine-2,3-dione], the EC50 turned out to be 61 nM. In the case of `O=c1c(=O)n(C23CC(C2)C3)ccn1Cc1cc(-c2cccnc2)on1` [Example 212, 1-(bicyclo[1.1.1]pentan-1-yl)-4-((5-(pyridin-3-yl)isoxazol-3-yl)methyl)-1,4-dihydropyrazine-2,3-dione] it was 10 nM; in that of `O=c1c(=O)n(C23CC(F)(C2)C3)ccn1Cc1ccc(-c2cncs2)nn1` [Example 213, 1-(3-fluorobicyclo[1.1.1]pentan-1-yl)-4-((6-(thiazol-5-yl)pyridazin-3-yl)methyl)-1,4-dihydropyrazine-2,3-dione], 29 nM.

With `O=c1c(=O)n(C23CC(F)(C2)C3)ccn1Cc1ccc(-c2ccccn2)nn1` [Example 214, 1-(3-fluorobicyclo[1.1.1]pentan-1-yl)-4-((6-(pyridin-2-yl)pyridazin-3-yl)methyl)-1,4-dihydropyrazine-2,3-dione], the EC50 amounted to 56 nM. In the case of `O=c1c(=O)n(C23CC(F)(C2)C3)ccn1Cc1ccc(-c2cccnc2)nn1` [Example 215, 1-(3-fluorobicyclo[1.1.1]pentan-1-yl)-4-((6-(pyridin-3-yl)pyridazin-3-yl)methyl)-1,4-dihydropyrazine-2,3-dione], the EC50 came out at 57 nM. Turning to `O=c1c(=O)n(C2(CF)CC2)ccn1Cc1ccc(-n2nccn2)cn1` [Example 216, 1-((5-(2H-1,2,3-triazol-2-yl)pyridin-2-yl)methyl)-4-(1-(fluoromethyl)cyclopropyl)-1,4-dihydropyrazine-2,3-dione], the EC50 came out at 60 nM. For `O=c1c(=O)n(C23CC(F)(C2)C3)ccn1Cc1ccc(-n2nccn2)cn1` [Example 217, 1-((5-(2H-1,2,3-triazol-2-yl)pyridin-2-yl)methyl)-4-(3-fluorobicyclo[1.1.1]pentan-1-yl)-1,4-dihydropyrazine-2,3-dione] the value was 42 nM; for `O=c1c(=O)n(C2(CF)CC2)ccn1Cc1ccc(-n2cccn2)cn1` [Example 218, 1-((5-(1H-pyrazol-1-yl)pyridin-2-yl)methyl)-4-(1-(fluoromethyl)cyclopropyl)-1,4-dihydropyrazine-2,3-dione], 56 nM; for `O=c1c(=O)n(C23CC(F)(C2)C3)ccn1Cc1ccc(-n2cccn2)cn1` [Example 219, 1-((5-(1H-pyrazol-1-yl)pyridin-2-yl)methyl)-4-(3-fluorobicyclo[1.1.1]pentan-1-yl)-1,4-dihydropyrazine-2,3-dione], 59 nM. In the case of `O=c1c(=O)n(C23CC(F)(C2)C3)ccn1Cc1ccc(-n2cccn2)nc1` [Example 220, 1-((6-(1H-pyrazol-1-yl)pyridin-3-yl)methyl)-4-(3-fluorobicyclo[1.1.1]pentan-1-yl)-1,4-dihydropyrazine-2,3-dione], the EC50 amounted to 50 nM.

Consider `CC1(n2ccn(Cc3cc(-c4cccnc4)no3)c(=O)c2=O)CC1` [Example 221, 1-(1-methylcyclopropyl)-4-((3-(pyridin-3-yl)isoxazol-5-yl)methyl)-1,4-dihydropyrazine-2,3-dione], for which the concentration for a half-maximal effect (EC50) worked out at 14 nM. Regarding `N#CC1(n2ccn(Cc3cc(-c4cccnc4)no3)c(=O)c2=O)CC1` [Example 222, 1-(2,3-dioxo-4-((3-(pyridin-3-yl)isoxazol-5-yl)methyl)-3,4-dihydropyrazin-1(2H)-yl)cyclopropane-1-carbonitrile], the concentration giving a half-maximal response (EC50) stood at 316 nM. For `O=c1c(=O)n(C23CC(C2)C3)ccn1Cc1cc(-c2cccnc2)no1` [Example 223, 1-(bicyclo[1.1.1]pentan-1-yl)-4-((3-(pyridin-3-yl)isoxazol-5-yl)methyl)-1,4-dihydropyrazine-2,3-dione] the value was 10 nM; for `O=c1c(=O)n(C23CC(F)(C2)C3)ccn1Cc1cc(-c2cccnc2)no1` [Example 224, 1-(3-fluorobicyclo[1.1.1]pentan-1-yl)-4-((3-(pyridin-3-yl)isoxazol-5-yl)methyl)-1,4-dihydropyrazine-2,3-dione], 101 nM; for `O=c1c(=O)n(C2(CF)CC2)ccn1Cc1cc(-c2ccccn2)no1` [Example 225, 1-(1-(fluoromethyl)cyclopropyl)-4-((3-(pyridin-2-yl)isoxazol-5-yl)methyl)-1,4-dihydropyrazine-2,3-dione], 41 nM. For `O=C1C(=O)N(C23CC(F)(C2)C3)CCN1Cc1ccc(-c2ccccn2)nn1` [Example 226], the concentration giving a half-maximal response (EC50) is 78 nM. Take `O=c1c(=O)n(C2(CF)CC2)ccn1Cc1ccc(-c2cccnc2)nn1` [Example 227, 1-(1-(fluoromethyl)cyclopropyl)-4-((6-(pyridin-3-yl)pyridazin-3-yl)methyl)-1,4-dihydropyrazine-2,3-dione]: the EC50 was found to be 69 nM. In the case of `O=C1C(=O)N(C23CC(F)(C2)C3)CCN1Cc1ccc(-c2ccccc2F)nn1` [Example 228, 1-(3-fluorobicyclo[1.1.1]pentan-1-yl)-4-((6-(2-fluorophenyl)pyridazin-3-yl)methyl)piperazine-2,3-dione] it was 23 nM; in that of `O=c1c(=O)n(C23CC(F)(C2)C3)ccn1Cc1ccc(-c2ccccn2)cn1` [Example 229, 1-([2,3′-bipyridin]-6′-ylmethyl)-4-(3-fluorobicyclo[1.1.1]pentan-1-yl)-1,4-dihydropyrazine-2,3-dione], 54 nM; in that of `O=c1c(=O)n(C23CC(F)(C2)C3)ccn1Cc1ccc(-n2ccnn2)nc1` [Example 230, 1-((6-(1H-1,2,3-triazol-1-yl)pyridin-3-yl)methyl)-4-(3-fluorobicyclo[1.1.1]pentan-1-yl)-1,4-dihydropyrazine-2,3-dione], 91 nM. Consider `O=c1c(=O)n(C2(CF)CC2)ccn1Cc1ccc(-n2cccn2)nc1` [Example 231, 1-((6-(1H-pyrazol-1-yl)pyridin-3-yl)methyl)-4-(1-(fluoromethyl)cyclopropyl)-1,4-dihydropyrazine-2,3-dione], for which the EC50 was found to be 22 nM. In the case of `O=C1C(=O)N(C23CC(F)(C2)C3)CCN1Cc1cc(-c2ccccn2)no1` [Example 232, 1-(3-fluorobicyclo[1.1.1]pentan-1-yl)-4-((3-(pyridin-2-yl)isoxazol-5-yl)methyl)piperazine-2,3-dione], the concentration for a half-maximal effect (EC50) came out at 82 nM. As for `O=c1c(=O)n(C2(CF)CC2)ccn1Cc1ccc(-c2nccs2)nn1` [Example 233, 1-(1-(fluoromethyl)cyclopropyl)-4-((6-(thiazol-2-yl)pyridazin-3-yl)methyl)-1,4-dihydropyrazine-2,3-dione], the EC50 was 54 nM. `O=C1C(=O)N(C23CC(F)(C2)C3)CCN1Cc1ccc(-c2nccs2)nn1` [Example 234, 1-(3-fluorobicyclo[1.1.1]pentan-1-yl)-4-((6-(thiazol-2-yl)pyridazin-3-yl)methyl)piperazine-2,3-dione]: the EC50 is 40 nM. In the case of `O=c1c(=O)n(C2(CF)CC2)ccn1Cc1ccc(-n2ccnn2)nc1` [Example 235, 1-((6-(1H-1,2,3-triazol-1-yl)pyridin-3-yl)methyl)-4-(1-(fluoromethyl)cyclopropyl)-1,4-dihydropyrazine-2,3-dione], the concentration for a half-maximal effect (EC50) was 18 nM. For `O=C1C(=O)N(C23CC(F)(C2)C3)CCN1Cc1ccc(-n2ccnn2)nc1` [Example 236, 1-((6-(1H-1,2,3-triazol-1-yl)pyridin-3-yl)methyl)-4-(3-fluorobicyclo[1.1.1]pentan-1-yl)piperazine-2,3-dione] the value was 533 nM.

The record behind these values is patent publication US20240246937A1 (MERCK SHARP & DOHME LLC, priority 2021, published 2024).
